This note sets out measurements from PubChem BioAssay (NCI).

Holding throughout (test): growth of human tumour cells (NCI), 48 h
In assay [1] the test system is MOLT-4 leukemia.
Assay [2] relates to EKVX NSCLC.
For assay [3], the system named is SF-295 CNS.
Assay [4] relates to U251 CNS.
In assay [5] the test system is CCRF-CEM leukemia.
The subject of assay [6] is IGROV1 ovarian.
Assay [7] has as its system NCI-H226 lung.
For assay [8], the system named is TK-10 renal.
Assay [9] deals with MDA-MB-435.

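1) Cells in 96-well plates. 2) Compound, 48 h, 5 concentrations. 3) Linear interpolation between surrounding doses. 4) Unreached endpoint = highest concentration. GI50 = concentration required for 50% inhibition of growth. TGI: concentration producing complete growth inhibition.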

`O=S1Nc2c(Cl)cc(Cl)c3c(Cl)cc(Cl)c(c23)N1`: the TGI in assay [1] is greater than 100 µM; in assay [2] it was greater than 100 µM; in [3], greater than 100 µM; in assay [4], 69.6 µM; in assay [5], greater than 100 µM; in [6], greater than 100 µM. For the same compound, the TGI was 69.5 µM in assay [7] and greater than 100 µM in assay [8].
As to `O=C1C(Cl)C(c2ccccc2O)N1n1cnc2ccccc2c1=O` (stereo unspecified), the TGI was greater than 100 µM in [1]; 88.5 µM in [2]; greater than 100 µM in assay [3]; greater than 100 µM in [4]; greater than 100 µM in [5]; greater than 100 µM in [6]. In addition, the TGI in [7] and in assay [8] was greater than 100 µM in each case.
For the compound `CC1=NN(C(=O)c2ccc([N+](=O)[O-])cc2)C(=O)C1N=Nc1ccccc1C(=O)O` (stereo unspecified), the TGI in assay [1], in assay [2], in assay [3], in assay [4], in [5] and in assay [6] was greater than 100 µM in each case. Further, the TGI in assay [7] and in [8] was greater than 100 µM throughout.
`O=c1c2cccc3cccc(c4n1CCN=4)c32`: the TGI in assay [1], in assay [2], in assay [3], in assay [4], in assay [5] and in assay [6] was greater than 100 µM throughout. The TGI is greater than 100 µM in [7] and 69.1 µM in assay [8].
`CSc1n[n+]2c(s1)SCCC2`: the TGI in assay [1], in assay [3], in assay [4], in assay [5], in assay [6] and in assay [8] was greater than 100 µM in each case.
With `O=c1[nH]c2cc(Cl)ccc2nc1/C(=N\O)C(O)c1ccc([N+](=O)[O-])cc1` (stereo unspecified), the TGI in [1], in assay [2], in assay [3], in assay [4], in assay [5] and in assay [6] was greater than 100 µM in each case. The TGI in assay [8] is greater than 100 µM.
For `O=C(Nc1cccc(O)c1)C(=O)C(C(=O)c1ccc(Cl)c(Cl)c1)C1OC(=O)c2ccccc21` (stereo unspecified), the TGI in assay [1] came out at 29.2 µM; in [2], 46.6 µM; in assay [3], 62.6 µM; in assay [4], 21.3 µM; in assay [5], 55.5 µM; in [6], 56.5 µM. Moreover, the values for the TGI in assay [7] and in assay [8] were 21.9 µM and 60.3 µM, respectively.
Turning to `Cc1c(C(=O)/C=C/c2ccccc2O)c(=O)n(-c2ccccc2)n1C`, the TGI is 63.2 µM in assay [1]; greater than 100 µM in assay [2]; 54.9 µM in [3]; 35.9 µM in assay [4]; 86.9 µM in [5]; greater than 100 µM in [6]. For the same compound, the TGI in assay [7] is 64.6 µM; in assay [8], greater than 100 µM.
On to `COC(=O)C(Cc1nc2ccccc2[nH]c1=O)C(=O)C(=O)Nc1ccc([N+](=O)[O-])cc1[N+](=O)[O-]` (stereo unspecified), for which the TGI in [1] turned out to be 59.1 µM; in assay [2] it was 51.2 µM; in assay [3], 49.9 µM; in assay [4], 32.5 µM; in [5], 51.9 µM; in assay [6] it was 55.4 µM. The TGI is 32.1 µM in [7] and 61.4 µM in assay [8].
Consider `CC(C)(C)C1CCC2c3c([nH]c4ccccc34)C3C(=O)N(c4ccccc4)C(=O)C3C2C1` (stereo unspecified), for which the TGI in [1] was found to be 14 µM; in [2], 55.3 µM; in assay [3], 16.4 µM; in assay [4] it was 11 µM; in assay [5] it was 11 µM; in assay [6] it was 39.4 µM. Besides, the values for the TGI in [7] and in [8] were 21.6 µM and 12.5 µM, respectively.
In the case of `Cn1c(=O)c2nc(-c3ccc(Cl)cc3)oc2n(C)c1=O`, the TGI in assay [1], in [2], in assay [3], in [4], in assay [5] and in assay [7] was greater than 100 µM each time. The TGI in assay [8] is greater than 100 µM.
Turning to `CC(=O)[CH-]C(=O)c1ccccc1.CC(=O)[CH-]C(=O)c1ccccc1.CCOCC[O-].CCOCC[O-].[Ti+4]`, the GI50 was 10.4 µM in [1]; 38.4 µM in [2]; 17.5 µM in [3]; 16 µM in [4]; 31.9 µM in [6]; 5.55 µM in assay [7]. In addition, the TGI is 56.5 µM in assay [1]; 96.4 µM in assay [2]; 33.9 µM in assay [3]; 42.2 µM in [4]; greater than 100 µM in assay [6]; 22.6 µM in assay [7].
Turning to `CN(C)c1nc(=Nc2cccc(Cl)c2)ss1`, the TGI in assay [1] was found to be 22.4 µM; in assay [2] it was 56.5 µM; in assay [3], 56.5 µM; in assay [4], 24.1 µM; in assay [5], 22.1 µM; in [6] it was 51 µM. Besides, the TGI in assay [7] and in [8] was greater than 100 µM throughout.
`CCOC(=O)C(C)(C)Oc1ccc(/C=C/C(=O)c2ccc(Cl)cc2)cc1`: the TGI is 76.8 µM in assay [1]; greater than 100 µM in assay [2]; 41.2 µM in [3]; 31.9 µM in assay [4]; 61.9 µM in assay [5]; 35.1 µM in assay [6]. Besides, the values for the TGI in assay [7] and in [8] were 70.5 µM and greater than 100 µM, respectively.
On to `CC/C(CC(=O)CCC(=O)Nc1ccccc1[N+](=O)[O-])=N/NC(=O)C[n+]1ccccc1`, for which the TGI in [1], in [2], in assay [3], in assay [4], in assay [5] and in assay [6] was greater than 100 µM in each case. Moreover, the TGI in assay [7] and in assay [8] was greater than 100 µM in each case.
With `CN1C(=O)C(=O)c2cc3c(c4c2c1cc1ccccc14)OCO3`, the TGI was 93.4 µM in assay [1]; greater than 100 µM in [2]; greater than 100 µM in assay [3]; greater than 100 µM in [4]; greater than 100 µM in assay [5]; greater than 100 µM in assay [6]. Besides, the TGI in assay [7] was 73.3 µM; in assay [8], greater than 100 µM.
For the compound `COC1=CC(=O)C2C(C1=O)C(c1ccccc1)[C@H]2C` (stereo partly specified), the TGI was greater than 10 µM in assay [1]; greater than 100 µM in [2]; greater than 100 µM in [3]; greater than 100 µM in [4]; greater than 100 µM in assay [5]; greater than 100 µM in assay [6]. Also, in [8], the TGI was greater than 100 µM.
Consider `C/C=C/CC(C)[C@@H](O)[C@H](NC)C(=O)O` (stereo partly specified), for which the TGI in assay [1], in assay [2], in assay [3], in assay [4], in assay [5] and in assay [6] was greater than 100 µM each time. The compound also gave a TGI in assay [8] greater than 100 µM.
Consider `CCOc1cccc2ccc[n+](CC)c12`, for which the TGI in assay [1], in assay [2], in assay [3], in assay [5], in assay [6] and in [7] was greater than 100 µM throughout. For the same compound, the TGI in assay [8] was greater than 100 µM.
For `O=[N+]([O-])C1Cc2ccccc2OC1c1ccccc1` (stereo unspecified), the TGI in assay [1] is 70.7 µM; in assay [2], greater than 100 µM; in [3], greater than 100 µM; in [4], greater than 100 µM; in assay [5], greater than 100 µM; in [6], greater than 100 µM. Moreover, the TGI in assay [7] and in [8] was greater than 100 µM in each case.
Take `COc1cc(CNC2c3cc4c(cc3C(c3cc(OC)c(OC)c(OC)c3)[C@H]3C(=O)OCC23)OCO4)cc(OC)c1OC` (stereo partly specified): the TGI in assay [1] is greater than 100 µM; in [3] it was 0.677 µM; in [5], 40.9 µM; in [6], greater than 100 µM; in [7] it was 0.487 µM; in assay [8], greater than 100 µM.
Consider `CC(=O)OC1CC2C(C)(C)C(=O)C=C[C@]2(C)C2CCC3(C)C(=CC(=O)C3c3ccoc3)[C@]12C` (stereo partly specified), for which the TGI in assay [1] is 34 µM; in assay [2], 37.7 µM; in assay [3], 28.7 µM; in [5], 30 µM; in [6], 57.9 µM; in [7] it was 35.6 µM. Moreover, in assay [8], the TGI amounted to 30 µM.
On to `CCC(CNc1cc(OC)cc2cccnc12)NC1CCCCC1` (stereo unspecified), for which the GI50 in [9] is 32.6 µM; in assay [1] it was 36 µM; in assay [2], 40.1 µM; in [3], 17.3 µM; in assay [4] it was 43.3 µM; in assay [6], 10.6 µM. For the same compound, the GI50 in assay [7] is 86 µM. Also, the TGI is greater than 100 µM in assay [9]; greater than 100 µM in assay [1]; greater than 100 µM in assay [2]; 45.8 µM in [3]; greater than 100 µM in [4]; 44.9 µM in assay [6]. Also, the TGI in assay [7] was greater than 100 µM.
For `CN(C)C=C1C(Cl)=C(C=O)CC(C=O)=C1Cl`, the TGI in assay [1] turned out to be 10.2 µM; in assay [2], 54.3 µM; in assay [3], 41.7 µM; in assay [4] it was 23.7 µM; in assay [5], 10.6 µM; in assay [6] it was 33 µM. In [8], this compound showed a TGI of 31.8 µM.
`CCc1cccc(CC)c1NC(=O)C1=C(C)NC(C)=C(C(=O)Nc2c(CC)cccc2CC)C1c1ccc([N+](=O)[O-])cc1`: the TGI in assay [1] was 43.3 µM; in [2], 78.3 µM; in assay [3], 38.6 µM; in [4] it was greater than 100 µM; in [5], 45.8 µM; in assay [6], 52.4 µM. The TGI in [7] is greater than 100 µM; in [8], 82.5 µM.
Take `Cc1cc(Cl)ccc1NC(=O)C(=O)C(C(=O)c1ccc2ccccc2c1)C1OC(=O)c2ccccc21` (stereo unspecified): the TGI in assay [2] is 75.9 µM; in [4] it was 21.2 µM; in assay [5] it was 22.2 µM; in assay [6], greater than 100 µM; in assay [7], 7.69 µM.
For `Cc1c(C(=O)/C=C/c2ccc(N(C)C)cc2)c(=O)n(-c2ccccc2)n1C`, the TGI in assay [1], in [2], in assay [3], in assay [4], in assay [5] and in assay [6] was greater than 100 µM each time. The TGI in assay [7] and in [8] was greater than 100 µM in each case.
On to `COC(=O)C1[C@H](c2cc(OC)c(OC)c(OC)c2)OC(=O)C1(C(=O)OC)C(=O)c1ccc2c(c1)OCO2` (stereo partly specified), for which the TGI in assay [1], in [2], in assay [3], in assay [4], in assay [5] and in assay [6] was greater than 100 µM in each case. Besides, the TGI in [7] and in assay [8] was greater than 100 µM in each case.
Consider `O=[N+]([O-])CCc1cccc([N+](=O)[O-])c1`, for which the TGI in assay [1], in [2], in assay [3], in assay [4], in assay [5] and in assay [6] was greater than 100 µM throughout. The TGI in assay [7] and in [8] was greater than 100 µM in each case.
Take `Cc1cc(=O)oc2c(C)c(OCCCOc3ccc4c(C)cc(=O)oc4c3C)ccc12`: the TGI in assay [1], in [2], in assay [3], in assay [4], in [5] and in assay [6] was greater than 100 µM throughout. This compound showed a TGI in assay [8] greater than 100 µM.
For `Cc1cc(N(CCC#N)S(C)(=O)=O)ccc1C=Nc1ccc(C(=O)NN2C(=O)/C(=C/c3ccc(N(CCC#N)CCC#N)cc3C)N=C2c2cc([N+](=O)[O-])ccc2Cl)cc1`, the TGI in assay [2], in assay [4], in [5], in [6], in assay [7] and in assay [8] was greater than 100 µM in each case.
